Assay results: US10597388B2, “Pyridazinone herbicides” (FMC CORPORATION, priority 2014, dated 2020)

Experiments:
Assay in all cases: Test C greenhouse herbicide test, pre- and postemergence
Format in all cases: in vivo
[1] = test system: ryegrass, Italian (Italian ryegrass, Lolium multiflorum)
Procedure, shortened: (§1)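 Pre- and postemergence greenhouse screen; values are visual control ratings, 0 meaning no effect and 100 complete kill, assigned relative to untreated plants after 13 to 15 d.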

[2] = test system: morningglory (Ipomoea coccinea)
Procedure, shortened: as §1

[3] = test system: johnsongrass (Sorghum halepense)
Procedure, shortened: as §1

[4] = test system: soybean (Glycine max)
Procedure, shortened: as §1

[5] = test system: nutsedge, yellow (yellow nutsedge, Cyperus esculentus)
Procedure, shortened: as §1

[6] = test system: lambsquarters (Chenopodium album)
Procedure, shortened: as §1

[7] = test system: barnyardgrass (Echinochloa crus-galli)
Procedure, shortened: as §1

[8] = test system: pigweed (Amaranthus retroflexus)
Procedure, shortened: as §1

[9] = test system: crabgrass, large (large crabgrass, Digitaria sanguinalis)
Procedure, shortened: as §1

[10] = test system: waterhemp (common waterhemp, Amaranthus rudis)
Procedure, shortened: as §1

[11] = test system: wheat (winter wheat, Triticum aestivum)
Procedure, shortened: as §1

[12] = test system: corn (Zea mays)
Procedure, shortened: as §1

[13] = test system: velvetleaf (Abutilon theophrasti)
Procedure, shortened: as §1

[14] = test system: ragweed (common ragweed, Ambrosia elatior)
Procedure, shortened: as §1

[15] = test system: blackgrass (Alopecurus myosuroides)
Procedure, shortened: as §1

[16] = Postemergence, 31 g ai/ha, scale 0 to 100 (0 no effect, 100 complete control)
[17] = Postemergence, 62 g ai/ha, 0 to 100 scale (0 no effect, 100 complete control)
[18] = Postemergence, 250 g ai/ha, scale 0 to 100, 0 no effect, 100 complete control, 13 to 15 d
[19] = Preemergence, 31 g ai/ha, scale 0 to 100, 0 is no effect, 100 is complete control
[20] = Preemergence, 62 g ai/ha, scale 0 to 100, 0 is no effect, 100 is complete control
[21] = Preemergence, 125 g ai/ha, scale 0 to 100, 0 is no effect, 100 is complete control
[22] = Preemergence, 250 g ai/ha, scale 0 to 100, 0 no effect, 100 complete control
[23] = postemergence, 125 g ai/ha, scale 0 to 100, 0 no effect, 100 complete control

## CCC(=O)Oc1c(C)nn(C)c(=O)c1-c1ccc(Br)c2ccccc12 [Compound 134]
[1]; [16]
  Plant response rating, Ryegrass, Italian: 5
[1]; [17]
  Ryegrass, Italian plant response rating: 15
[1]; [18]
  Plant response rating, Ryegrass, Italian: 40
[1]; [19]
  Plant response rating, Ryegrass, Italian: 98
[1]; [20]
  Plant response rating, Ryegrass, Italian: 100
[1]; [21]
  Plant response rating, Ryegrass, Italian: 100
[1]; [22]
  Ryegrass, Italian plant response rating: 100
[1]; [23]
  Ryegrass, Italian plant response rating: 20
[2]; [16]
  Plant response rating, Morningglory: 98
[2]; [17]
  Morningglory plant response rating: 100
[2]; [18]
  Plant response rating, Morningglory: 100
[2]; [19]
  Plant response rating, Morningglory: 75
[2]; [20]
  Plant response rating, Morningglory: 90
[2]; [21]
  Plant response rating, Morningglory: 95
[2]; [22]
  Morningglory plant response rating: 100
[2]; [23]
  Morningglory plant response rating: 100
[3]; [16]
  Plant response rating, Johnsongrass: 10
[3]; [17]
  Johnsongrass plant response rating: 10
[3]; [18]
  Plant response rating, Johnsongrass: 25
[3]; [19]
  Plant response rating, Johnsongrass: 0
[3]; [20]
  Plant response rating, Johnsongrass: 5
[3]; [21]
  Plant response rating, Johnsongrass: 5
[3]; [22]
  Johnsongrass plant response rating: 5
[3]; [23]
  Johnsongrass plant response rating: 5
[4]; [16]
  Plant response rating, Soybean: 75
[4]; [17]
  Soybean plant response rating: 70
[4]; [18]
  Plant response rating, Soybean: 85
[4]; [19]
  Plant response rating, Soybean: 40
[4]; [20]
  Plant response rating, Soybean: 45
[4]; [21]
  Plant response rating, Soybean: 65
[4]; [22]
  Soybean plant response rating: 75
[4]; [23]
  Soybean plant response rating: 70
[5]; [16]
  Plant response rating, Nutsedge, Yellow: 75
[5]; [17]
  Nutsedge, Yellow plant response rating: 80
[5]; [18]
  Plant response rating, Nutsedge, Yellow: 90
[5]; [19]
  Plant response rating, Nutsedge, Yellow: 30
[5]; [20]
  Plant response rating, Nutsedge, Yellow: 45
[5]; [21]
  Plant response rating, Nutsedge, Yellow: 95
[5]; [22]
  Nutsedge, Yellow plant response rating: 90
[5]; [23]
  Nutsedge, Yellow plant response rating: 95
[6]; [16]
  Plant response rating, Lambsquarters: 100
[6]; [17]
  Lambsquarters plant response rating: 98
[6]; [18]
  Plant response rating, Lambsquarters: 100
[6]; [19]
  Plant response rating, Lambsquarters: 75
[6]; [20]
  Plant response rating, Lambsquarters: 90
[6]; [21]
  Plant response rating, Lambsquarters: 100
[6]; [22]
  Lambsquarters plant response rating: 100
[6]; [23]
  Lambsquarters plant response rating: 100
[7]; [16]
  Plant response rating, Barnyardgrass: 10
[7]; [17]
  Barnyardgrass plant response rating: 20
[7]; Postemergence, 125 g ai/ha, scale 0 to 100, 0 is no effect, 100 is complete control
  Plant response rating, Barnyardgrass: 40
[7]; [18]
  Plant response rating, Barnyardgrass: 55
[7]; [19]
  Plant response rating, Barnyardgrass: 5
[7]; [20]
  Plant response rating, Barnyardgrass: 40
[7]; [21]
  Plant response rating, Barnyardgrass: 70
[7]; [22]
  Barnyardgrass plant response rating: 90
[8]; [16]
  Plant response rating, Pigweed: 80
[8]; [17]
  Pigweed plant response rating: 100
[8]; [18]
  Plant response rating, Pigweed: 100
[8]; [19]
  Plant response rating, Pigweed: 75
[8]; [20]
  Plant response rating, Pigweed: 100
[8]; [21]
  Plant response rating, Pigweed: 100
[8]; [22]
  Pigweed plant response rating: 100
[8]; [23]
  Pigweed plant response rating: 100
[9]; [16]
  Plant response rating, Crabgrass, Large: 5
[9]; [17]
  Crabgrass, Large plant response rating: 10
[9]; [18]
  Plant response rating, Crabgrass, Large: 40
[9]; [19]
  Plant response rating, Crabgrass, Large: 5
[9]; [20]
  Plant response rating, Crabgrass, Large: 30
[9]; [21]
  Plant response rating, Crabgrass, Large: 40
[9]; [22]
  Crabgrass, Large plant response rating: 60
[9]; [23]
  Crabgrass, Large plant response rating: 15
[10]; [16]
  Plant response rating, Waterhemp: 98
[10]; [17]
  Waterhemp plant response rating: 100
[10]; [18]
  Plant response rating, Waterhemp: 100
[10]; [19]
  Plant response rating, Waterhemp: 90
[10]; [20]
  Plant response rating, Waterhemp: 98
[10]; [21]
  Plant response rating, Waterhemp: 98
[10]; [22]
  Waterhemp plant response rating: 100
[10]; [23]
  Waterhemp plant response rating: 100
[11]; [16]
  Plant response rating, Wheat: 30
[11]; [17]
  Wheat plant response rating: 50
[11]; [18]
  Plant response rating, Wheat: 90
[11]; [19]
  Plant response rating, Wheat: 0
[11]; [20]
  Plant response rating, Wheat: 0
[11]; [21]
  Plant response rating, Wheat: 15
[11]; [22]
  Wheat plant response rating: 40
[11]; [23]
  Wheat plant response rating: 65
[12]; [16]
  Plant response rating, Corn: 5
[12]; [17]
  Corn plant response rating: 10
[12]; [18]
  Plant response rating, Corn: 15
[12]; [19]
  Plant response rating, Corn: 0
[12]; [20]
  Plant response rating, Corn: 0
[12]; [21]
  Plant response rating, Corn: 10
[12]; [22]
  Corn plant response rating: 5
[12]; [23]
  Corn plant response rating: 10
[13]; [16]
  Plant response rating, Velvetleaf: 80
[13]; [17]
  Velvetleaf plant response rating: 90
[13]; [18]
  Plant response rating, Velvetleaf: 100
[13]; [19]
  Plant response rating, Velvetleaf: 75
[13]; [20]
  Plant response rating, Velvetleaf: 90
[13]; [21]
  Plant response rating, Velvetleaf: 90
[13]; [22]
  Velvetleaf plant response rating: 100
[13]; [23]
  Velvetleaf plant response rating: 100
[14]; [16]
  Plant response rating, Ragweed: 0
[14]; [17]
  Ragweed plant response rating: 5
[14]; [18]
  Plant response rating, Ragweed: 30
[14]; [19]
  Plant response rating, Ragweed: 70
[14]; [20]
  Plant response rating, Ragweed: 95
[14]; [21]
  Plant response rating, Ragweed: 95
[14]; [22]
  Ragweed plant response rating: 98
[14]; [23]
  Ragweed plant response rating: 5
[15]; [16]
  Plant response rating, Blackgrass: 50
[15]; [17]
  Blackgrass plant response rating: 45
[15]; [18]
  Plant response rating, Blackgrass: 98
[15]; [19]
  Plant response rating, Blackgrass: 20
[15]; [20]
  Plant response rating, Blackgrass: 40
[15]; [21]
  Plant response rating, Blackgrass: 40
[15]; [22]
  Blackgrass plant response rating: 75
[15]; [23]
  Blackgrass plant response rating: 50
